Test results: patent publication US20210323940A1 (OCEANS LTD., priority 2018, published 2021)
In brackets after ≈: the same amount, converted by molar mass.

Assays:
[1] = test system: MDA-MB-231 (mammary gland adenocarcinoma); experiment: CIMA assay (MTT, 72 h); format: cell-based, human; details: Homo sapiens, MDA-MB-231
Description: Experimental: Stock solutions of the test compounds were prepared in dimethylsulfoxide (DMSO) at 10 mg/ml and stored at −20° C. until used. This preparation ensures that the DMSO content delivered to cells in culture never exceeds 1%. […] Cell proliferation was initially assessed using a standard colorimetric indicator of metabolic activity (CIMA) assay. In this assay, reduction of yellow tetrazolium salt (MTT) to purple formazan by mitochondrial reductases enzymes in viable cells were measured as change in absorbance (λ=500-600).
Seven human cell lines were evaluated: U373 (glioblastoma-astrocytoma), A549 (lung carcinoma), PC3 (prostate adenocarcinoma), THP1 (acute monocytic leukemia), MDA-MB-231 (mammary gland adenocarcinoma), SKOV3 (ovarian adenocarcinoma) and CCD1079Sk (normal skin fibroblast) cells.

[2] = Murine flank tumour model, synthesized compound (II) (DHODO): body weights; format: in vivo, nude mice (strain J:NU)
Description: (§1) To establish the tumours, MDA-MB-231 breast cancer cells (2.5 million cells in 100 pl 50:50 matrigel:DMEM) were injected subcutaneously into both right and left flanks. Tumours were evaluated over a 2-week period until sufficient volume growth (approximately 20 mm3) for subsequent analysis had occurred. During this period, body weights were measured twice weekly. Mice with established tumours were treated every second day by intraperitoneal injections of test compounds over a 4-week time course. From each group a minimum of 15 tumours were selected for analysis. Tumours were measured weekly using external calipers and volumes established using the modified ellipsoidal formula: tumour volume=0.5 (length×width2). In addition, body weights and general animal health were assessed twice weekly during the treatment period. At study termination, mice were sacrificed and tumours excised from the flank was weighed. To evaluate tumour metastasis, an explorative necropsy was conducted in each mouse and the presence and frequency of additional tumours at sites distal to the flank were assessed.

[3] = test system: MDA-MB-231 breast cancer cells; experiment: Murine flank tumour model, synthesized compound (II) (DHODO): tumour volume; format: in vivo, nude mice (strain J:NU)
Description: as §1, with “Test material was dissolved in DMSO and the final injectable solution was prepared using PBS. Homozygous outbred nude mice (strain J:NU, 6-weeks old, female) suitable as immune-deficient tumour transplant hosts will be procured from a commercial supplier (Jackson Labs, Maine, USA) and acclimatized in a barrier facility (AVC) for one week. Mice were weighed and random groups of ten mice were established based on the tumour volume and body weight as follows: To establish” for “To establish”

[4] = test system: MDA-MB-231 human breast cancer cells; experiment: Murine flank tumor model, pure compound (II): tumor volume and weight; format: in vivo, nude mice (strain J:NU); details: for Tumour weight (mg) ± SEM, extracted at necropsy: intraperitoneal every second day, 4 weeks
Description: Animal studies were conducted under ACC protocol #17-020 and Biosafety protocol #6007077 approved by the Atlantic Veterinary College (AVC, UPEI). Briefly, homozygous outbred nude mice (strain J:NU, 4-weeks old, female) suitable as immunodeficient tumor transplant hosts were procured from a commercial supplier (Jackson Labs, Maine, USA) and acclimatized in a barrier facility (AVC, UPEI) for one week.
To establish the tumors, MDA-MB-231 human breast cancer cells were cultured in vitro and harvested when they were between 60 to 80% confluent. Under anesthetized conditions, each the mouse was injected subcutaneously into both right and left flanks with […] (50:50 in matrigel:DMEM). Tumors development was monitored over a 2-week period. At 2 weeks, tumor established mice (tumor volume ˜20 mm^3) were selected and randomly grouped based on the tumor volume and body weight into ten mice per group as follows: • Group 1: Vehicle control (VC, DMSO 2%, Kholliphor EL 2%) • Group 2: Compound (II), 10 mg/kg body weight • Group 3: Compound (II), 5 mg/kg body weight
Seaweed extract was dissolved in molecular grade DMSO, liquid emulsion was prepared in Kholliphor EL (Sigma, USA) and the final injectable solution was prepared using sterile normal saline.
Mice with established tumors were treated every second day by intraperitoneal injections of test extracts over a 4-week time course. From each group a minimum of 16 tumors were selected for analysis. Tumors were measured weekly using external calipers and volumes established using the modified ellipsoidal formula: tumor volume=0.5 (length×width^2).
In addition, body weights and general animal health were assessed twice weekly during the treatment period. At study termination, mice were sacrificed, and tumors excised from the flank. To evaluate tumor metastasis, an explorative necropsy was conducted in each mouse and the presence and frequency of additional tumors at sites distal to the flank were assessed. Tumor tissue from the flank region was collected and preserved in 10% neutral buffered formalin for histology. Variance within each of the treatment groups to vehicle control was assessed over the four-week time course by one-way ANOVA.

IC50 ([1]; 72 h): 34.3 µg/mL (≈ 110 µM)
SMILES: CCCCC[C@H](O)[C@H](O)/C=C/[C@@H]1CCCCCCCC(=O)O1 [compound (II), 12R, 13S-Dihydroxy-10-Octadecen-9S-olide]
viability at 1 µg/mL ([1]; MDA-MB, 1 ug/mL, read-out: average cell viability): 101%
viability at 10 µg/mL ([1]; MDA-MB, 10 ug/mL, read-out: average cell viability): 96%
viability at 50 µg/mL ([1]; MDA-MB, 50 ug/mL, read-out: average cell viability): 66%
viability at 100 µg/mL ([1]; MDA-MB, 100 ug/mL, read-out: average cell viability): 20%
Body weight change Δ over the four-week trial ([2]; 1 mg/kg): 0.6 g
Body weight ([2]; 1 mg/kg, Week 1): 21.9 g
Body weight ([2]; 1 mg/kg, Week 2): 22.5 g
Body weight ([2]; 1 mg/kg, Week 3): 22.1 g
Body weight ([2]; 1 mg/kg, Week 4): 22.5 g
Body weight change Δ over the four-week trial ([2]; 5 mg/kg): 0.9 g
Body weight ([2]; 5 mg/kg, Week 1): 23.8 g
Body weight ([2]; 5 mg/kg, Week 2): 24.8 g
Body weight ([2]; 5 mg/kg, Week 3): 24.3 g
Body weight ([2]; 5 mg/kg, Week 4): 24.9 g
Body weight change Δ over the four-week trial ([2]; 10 mg/kg): 0.8 g
Body weight ([2]; 10 mg/kg, Week 1): 24.2 g
Body weight ([2]; 10 mg/kg, Week 2): 24.8 g
Body weight ([2]; 10 mg/kg, Week 3): 24.3 g
Body weight ([2]; 10 mg/kg, Week 4): 25.0 g
Tumour weight at necropsy ([3]; 1 mg): 0.0815 g
Tumour size expressed in volume ([3]; 1 mg/kg, Week 0): 40.59 mm^3
Tumour size expressed in volume ([3]; 1 mg/kg, Week 1): 36.34 mm^3
Tumour size expressed in volume ([3]; 1 mg/kg, Week 2): 65.15 mm^3
Tumour size expressed in volume ([3]; 1 mg/kg, Week 3): 82.66 mm^3
Tumour size expressed in volume ([3]; 1 mg/kg, Week 4): 110.23 mm^3
Tumour weight at necropsy ([3]; 5 mg): 0.0380 g
tumour growth ([3]; 5 mg/kg): inhibited tumour growth
Tumour volumes reduced by ([3]; 5 mg/kg, intraperitoneal every second day, 4 weeks): 50%
Tumour size expressed in volume ([3]; 5 mg/kg, Week 0): 44.24 mm^3
Tumour size expressed in volume ([3]; 5 mg/kg, Week 1): 30.47 mm^3
Tumour size expressed in volume ([3]; 5 mg/kg, Week 2): 39.17 mm^3
Tumour size expressed in volume ([3]; 5 mg/kg, Week 3): 43.73 mm^3
Tumour size expressed in volume ([3]; 5 mg/kg, Week 4): 66.83 mm^3
Tumour weight at necropsy ([3]; 10 mg): 0.0913 g
Tumour size expressed in volume ([3]; 10 mg/kg, Week 0): 46.33 mm^3
Tumour size expressed in volume ([3]; 10 mg/kg, Week 1): 52.86 mm^3
Tumour size expressed in volume ([3]; 10 mg/kg, Week 2): 71.23 mm^3
Tumour size expressed in volume ([3]; 10 mg/kg, Week 3): 73.39 mm^3
Tumour size expressed in volume ([3]; 10 mg/kg, Week 4): 154.29 mm^3
reduction in tumour growth ([3]; 1 and 10 mg/kg, early exponential tumour growth in these groups): No reduction in tumour growth
Tumour volumes ± SEM ([4]; 5 mg/kg b. wt. i.p. every second day, Week 0): 26.94 ± 1.98 mm^3
Tumour volumes ± SEM ([4]; 5 mg/kg b. wt. i.p. every second day, Week 1): 20.83 ± 2.20 mm^3
Tumour volumes ± SEM ([4]; 5 mg/kg b. wt. i.p. every second day, Week 2): 17.38 ± 2.04*¶ mm^3
Tumour volumes ± SEM ([4]; 5 mg/kg b. wt. i.p. every second day, Week 3): 17.23 ± 3.18*¶ mm^3
Tumour volumes ± SEM ([4]; 5 mg/kg b. wt. i.p. every second day, Week 4): 28.01 ± 3.61*¶ mm^3
Tumour weight (mg) ± SEM, extracted at necropsy ([4]; 5 mg/kg b.wt.): 34.64 ± 15.78 mg
Tumour volumes ± SEM ([4]; 10 mg/kg b. wt. i.p. every second day, Week 0): 27.09 ± 1.60 mm^3
Tumour volumes ± SEM ([4]; 10 mg/kg b. wt. i.p. every second day, Week 1): 24.06 ± 1.98 mm^3
Tumour volumes ± SEM ([4]; 10 mg/kg b. wt. i.p. every second day, Week 2): 17.40 ± 2.88*¶ mm^3
Tumour volumes ± SEM ([4]; 10 mg/kg b. wt. i.p. every second day, Week 3): 18.95 ± 5.34*¶ mm^3
Tumour volumes ± SEM ([4]; 10 mg/kg b. wt. i.p. every second day, Week 4): 28.37 ± 9.37*¶ mm^3
Tumour weight (mg) ± SEM, extracted at necropsy ([4]; 10 mg/kg b.wt.): 27.29 ± 8.07 mg
tumor volume at the end of 4-weeks (average) ([4]; 5 and 10 mg/kg, controls rose from 26 to 73 mm^3): ~27 mm^3
change in tumor size during the 4-week study ([4]; both tested concentrations (5 and 10 mg/kg)): no significant change in tumor size
